The target in the test is T1, FGF3 (Homo sapiens, UniProt P11487).
T1 sequence (P11487 18-239): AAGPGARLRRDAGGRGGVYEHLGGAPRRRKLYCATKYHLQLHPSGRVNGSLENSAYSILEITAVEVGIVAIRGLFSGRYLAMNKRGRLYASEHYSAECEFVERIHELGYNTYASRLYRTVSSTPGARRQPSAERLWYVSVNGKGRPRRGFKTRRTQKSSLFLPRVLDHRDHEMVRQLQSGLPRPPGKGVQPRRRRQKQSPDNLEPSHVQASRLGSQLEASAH
Briefly: SPR analysis of FGF/ARPCA interaction, FGF3. Format: binding. The settings on record: immobilized FGF3.

Regarding Ac-ARPCA-NH2 [ARPCA, Ac-ARPCA-NH2], the “Kd, FGF3” value is on record as “n.b”.
